Measured values: patent US8742088B2, “Nucleic acids encoding antibodies or portions thereof comprising a heterologous T cell epitope and their use in modulating T cell responses” (priority 2007, dated 2014)

Tested on: predicted CTL epitopes from Tie-2
Assay: Ex-vivo IFNγ ELISPOT with predicted CTL epitopes from Tie-2
Assay type: in vivo, HHDII mice
Details: for Peptide-specific IFNγ response, highest mean value: peptide in IFA
Experimental: (C) and (D) HHDII mice were either untreated (c) or treated with 400 μg PC61mAb i.p., (d). 4 days later, all mice were immunized with the Tie2 C200HFc DNA construct. DNA immunizations were repeated at 7 day intervals for a total of 3 immunisations. 6 days after the final immunisation, splenocytes were harvested and restimulated in an ex-vivo IFNγ ELISPOT assay with 1 μg/ml of each of the predicted CTL epitopes from Tie-2. Bars indicate the mean of triplicate values for each individual mouse, normalized to background controls, with error bars representing the standard deviation from the mean.
(E) and (F), HHDII mice were either untreated (e) (n=3) or treated (f) (n=2) with 400 μg PC61 antibody i.p. After 4 days, all mice were immunised with 100 μg Z12 peptide and 100 μg Z48 peptide, mixed 1:1 in IFA (s.c.). Repeat peptide immunisations were administered 7 days after the first peptide immunisation. Splenocytes were harvested 14 days after the final immunisation and restimulated with 1 μg/ml Z12 peptide (black bars) or media alone (open bars) in an IFNγ ELIspot assay. Bars indicate the mean of triplicate values with error bars representing the standard deviation from the mean.
(G) HHDII mice were immunised with 100 μg Z12 peptide mixed 1:1 in IFA (s.c.). […] Splenocytes were harvested 7 days after the final immunisation and analysed for the presence of epitope specific responses to increasing peptide concentration in IFNγ elispot assay. Responses are measured from individual mice as spots/million splenocytes and avidity is assigned as the concentration which gives 50% maximal effector function.
(H) HHDII mice were immunised with ImmunoBody DNA construc DCIB71 via gene gun at days 0, 7 and 14. Splenocytes were harvested 7 days after the final immunisation and analysed for the presence of epitope specific responses to increasing peptide concentration in IFNγ elispot assay. Responses are measured from individual mice as spots/million splenocytes and avidity is assigned as the concentration which gives 50% maximal effector function. […]

Sequence: ILINSLPLV [Z282, I L I N S L P L V]
- Peptide-specific IFNγ response, highest mean value (CD25 depleted animals, mouse 2): 137 SFC/million cells
- Peptide-specific IFNγ response, highest mean value (non-depleted animals, mouse 3): 215 SFC/million cells
- z12 epitope specific responses (frequency and avidity) (three weekly immunisations, peptide titration): low frequency and avidity epitope specific responses
